Assay results: paper PMC4821887, “Identification of chemicals that mimic transcriptional changes associated with autism, brain aging and neurodegeneration” (Nature Communications, 2016)
Where a name gives a salt, the structure may show the parent alone.

Test system: mouse cortical neuron cultures
Details: not given

SMILES | % Dead cells (vehicle subtracted) [%]
CNC(=O)Oc1cccc(N=CN(C)C)c1 [Formetanate hydrochloride] | 1.887
CCOP(=O)(SC(C)CC)N1CCSC1=O (stereo not shown) [Fosthiazate] | -0.4742
C[C@@H]1[C@@H](c2ccc(Cl)cc2)SC(=O)N1C(=O)NC1CCCCC1 [Hexythiazox] | 0.5871
CCC(C)OC(=O)N1CCCCC1CCO (stereo not shown) [Icaridin] | 2.044
C=CCOC(Cn1ccnc1)c1ccc(Cl)cc1Cl (stereo not shown) [Imazalil] | 0.2633
COCc1cnc(C2=NC(C)(C(C)C)C(=O)N2)c(C(=O)O)c1 (stereo not shown) [Imazamox] | -0.1553
CC(C)C1(C)N=C(c2nc3ccccc3cc2C(=O)O)NC1=O (stereo not shown) [Imazaquin] | -2.73
COC(=O)c1ccc(I)cc1S(=O)(=O)[N-]C(=O)Nc1nc(C)nc(OC)n1.[Na+] [Iodosulfuron-methyl-sodium] | -4.352
CCOP(=S)(OCC)Oc1nc(Cl)n(C(C)C)n1 [Isazofos] | -3.842
Cl[C@H]1[C@H](Cl)[C@@H](Cl)[C@@H](Cl)[C@H](Cl)[C@H]1Cl [Lindane] | 3.537
CON(C)C(=O)Nc1ccc(Cl)c(Cl)c1 [Linuron] | -0.9348
Cc1cc(Cl)ccc1OCC(=O)O [MCPA (Agroxone)] | 9.261
CCOC(=O)CC(SP(=O)(OC)OC)C(=O)OCC (stereo not shown) [Malaoxon] | -0.008689
CCOC(=O)CC(SP(=S)(OC)OC)C(=O)OCC (stereo not shown) [Malathion] | -1.492
O=c1ccc(=O)[nH][nH]1 [Maleic hydrazide] | 7.215
S=C([S-])NCCNC(=S)[S-].[Mn+2] [Maneb] | 6.097
COC(=O)c1ccc(CNS(C)(=O)=O)cc1S(=O)(=O)NC(=O)Nc1nc(OC)cc(OC)n1 [Mesosulfuron methyl] | -0.4756
CS(=O)(=O)c1ccc(C(=O)C2C(=O)CCCC2=O)c([N+](=O)[O-])c1 [Mesotrione] | 0.1871
COCC(=O)N(c1c(C)cccc1C)C(C)C(=O)OC (stereo not shown) [Metalaxyl] | 0.5361
CNC(=S)[S-].O.O.[Na+] [Metam-sodium hydrate] | -1.491
COP(N)(=O)SC (stereo not shown) [Methamidophos] | -1.5388
Cc1ccc(C(=O)c2ccccc2)cc1 [Methanone (4-Methylbenzophenone)] | 2.416

SMILES | % Dead cells (vehicle subtracted) [%]
COc1nn(CSP(=S)(OC)OC)c(=O)s1 [Methidathion] | 0.1761
COc1ccc(C(c2ccc(OC)cc2)C(Cl)(Cl)Cl)cc1 [Methoxychlor] | -0.6222
COc1cccc(C(=O)NN(C(=O)c2cc(C)cc(C)c2)C(C)(C)C)c1C [Methoxyfenozide] | 0.2717
COCCO [Methyl cellosolve] | 2.2057
COC(=O)c1ccccc1C(=O)O [Methyl hydrogen phthalate] | 1.938
CCc1cccc(C)c1N(C(=O)CCl)C(C)COC (stereo not shown) [Metolachlor] | -3.586
CSc1nnc(C(C)(C)C)c(=O)n1N [Metribuzin] | -0.1172
COc1nc(C)nc(NC(=O)NS(=O)(=O)c2ccccc2C(=O)O)n1 [Metsulfuron (Ally)] | 1.078
CCSC(=O)N1CCCCCC1 [Molinate] | 7.609
CCCCC(C#N)(Cn1cncn1)c1ccc(Cl)cc1 (stereo not shown) [Myclobutanil] | -1.6229
COP(=O)(OC)OC(Br)C(Cl)(Cl)Br (stereo not shown) [Naled] | -0.709
CNc1cnn(-c2cccc(C(F)(F)F)c2)c(=O)c1Cl [Norflurazon] | -0.1097
O=C(NC(=O)c1c(F)cccc1F)Nc1ccc(OC(F)(F)C(F)OC(F)(F)F)c(Cl)c1 (stereo not shown) [Novaluron] | -1.142
CNC(=O)O/N=C(\SC)C(=O)N(C)C [Oxamyl] | -2.835
Cc1cc(C)nc(NC(=O)NS(=O)(=O)c2ccccc2C(=O)OC2COC2)n1 [Oxasulfuron (benzoic acid)] | -0.4775
CCOc1cc(Oc2ccc(C(F)(F)F)cc2Cl)ccc1[N+](=O)[O-] [Oxyfluorfen] | -3.765
COP(=S)(OC)Oc1ccc([N+](=O)[O-])cc1 [Parathion-methyl] | 1.486
CCOP(=S)(OCC)Oc1ccc([N+](=O)[O-])cc1 [Parathion] | -1.193
CCC(CC)Nc1c([N+](=O)[O-])cc(C)c(C)c1[N+](=O)[O-] [Pendimethalin] | 0.8617
O=S(=O)(O)C(F)(F)C(F)(F)C(F)(F)C(F)(F)C(F)(F)C(F)(F)C(F)(F)C(F)(F)F [Perfluorooctane sulfonic acid] | 6.21
CC1(C)C(C=C(Cl)Cl)C1C(=O)OCc1cccc(Oc2ccccc2)c1 (stereo not shown) [Permethrin] | -0.7739
OCCOc1ccccc1 [Phenoxyethanol [2-Phenoxyethanol]] | 4.907

Same assay, conditions: mouse, 24 h, 0.1 µM

SMILES | % Dead cells (vehicle subtracted) [%]
CN(C)[C@@H]1C(O)=C(C(N)=O)C(=O)[C@@]2(O)C(O)=C3C(=O)c4c(O)cccc4[C@@](C)(O)[C@H]3[C@H](O)[C@@H]12 [Oxytetracycline dihydrate] | -3.324

Same assay, conditions: mouse, 24 h, 1 µM

SMILES | % Dead cells (vehicle subtracted) [%]
CN(C)[C@@H]1C(O)=C(C(N)=O)C(=O)[C@@]2(O)C(O)=C3C(=O)c4c(O)cccc4[C@@](C)(O)[C@H]3[C@H](O)[C@@H]12 [Oxytetracycline dihydrate] | -0.5636

Same assay, conditions: mouse, 24 h, 10 µM

SMILES | % Dead cells (vehicle subtracted) [%]
CCCCC(O)(Cn1cncn1)c1ccc(Cl)cc1Cl (stereo not shown) [Hexaconazole] | -2.068
CN(C)c1nc(=O)n(C2CCCCC2)c(=O)n1C [Hexazinone] | -2.629
CC(C)C1(C)N=C(c2ncccc2C(=O)O)NC1=O (stereo not shown) [Imazapyr] | 1.122
CCc1cnc(C2=NC(C)(C(C)C)C(=O)N2)c(C(=O)O)c1 (stereo not shown) [Imazethapyr] | 4.704
O=[N+]([O-])NC1=NCCN1Cc1ccc(Cl)nc1 [Imidacloprid] | -3.0763
COC(=O)N(C(=O)N1CO[C@@]2(C(=O)OC)Cc3cc(Cl)ccc3C2=N1)c1ccc(OC(F)(F)F)cc1 [Indoxacarb] | 0.6208
CC(C)NC(=O)N1CC(=O)N(c2cc(Cl)cc(Cl)c2)C1=O [Iprodione] | 8.376
CCC(C)(CC)c1cc(NC(=O)c2c(OC)cccc2OC)on1 [Isoxaben] | -1.274
CS(=O)(=O)c1cc(C(F)(F)F)ccc1C(=O)c1cnoc1C1CC1 [Isoxaflutole] | 2.416
CCOC(=O)C(C)OC(=O)c1cc(Oc2ccc(C(F)(F)F)cc2Cl)ccc1[N+](=O)[O-] (stereo not shown) [Lactofen] | -1.539
CCN(CC)C(=O)C(C)Oc1cccc2ccccc12 (stereo not shown) [Napropamide] | -2.444
Clc1cccc(C(Cl)(Cl)Cl)n1 [Nitrapyrin] | 0.473
CC(C)Oc1cc(-n2nc(C(C)(C)C)oc2=O)c(Cl)cc1Cl [Oxadiazon] | 5.6039
CN(C)[C@@H]1C(O)=C(C(N)=O)C(=O)[C@@]2(O)C(O)=C3C(=O)c4c(O)cccc4[C@@](C)(O)[C@H]3[C@H](O)[C@@H]12 [Oxytetracycline dihydrate] | 21.6384
COc1cnc(OC)n2nc(NS(=O)(=O)c3c(OCC(F)F)cccc3C(F)(F)F)nc12 [Penoxsulam] | -0.3089
